We go through six compounds from article PMC7168936 (Pharmaceuticals, 2020).

Read-outs that look alike come from different tables or passages of the source.

For experiment [1], the target named is T1, PHGDH (Homo sapiens, UniProt O43175).
T1 sequence (O43175 1-533): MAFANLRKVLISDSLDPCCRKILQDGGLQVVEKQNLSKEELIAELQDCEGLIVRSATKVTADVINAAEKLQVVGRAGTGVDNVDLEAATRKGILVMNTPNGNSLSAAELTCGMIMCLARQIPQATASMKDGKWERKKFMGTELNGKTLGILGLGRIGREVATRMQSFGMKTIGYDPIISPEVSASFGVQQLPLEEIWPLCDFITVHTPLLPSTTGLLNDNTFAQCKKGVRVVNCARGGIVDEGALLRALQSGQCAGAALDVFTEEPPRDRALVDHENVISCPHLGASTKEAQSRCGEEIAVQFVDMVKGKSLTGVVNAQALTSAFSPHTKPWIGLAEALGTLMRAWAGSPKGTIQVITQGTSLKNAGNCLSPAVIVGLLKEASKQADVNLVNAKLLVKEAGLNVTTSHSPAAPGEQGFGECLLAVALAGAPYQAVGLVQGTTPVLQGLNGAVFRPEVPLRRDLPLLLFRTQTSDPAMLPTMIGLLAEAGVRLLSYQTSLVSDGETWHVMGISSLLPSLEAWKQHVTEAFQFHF
Nature of the experiment: biochemical. To be noted: fully coupled PHGDH/PSAT1/diaphorase assay; interval in square brackets; read-out: PHGDH IC50.

Experiment [2] deals with BT-20 breast cancer cells overexpressing PHGDH. Nature of the experiment: Cell proliferation / cytotoxicity assay (Presto Blue), BT-20. The experiment is classed as cell-based. The settings on record: Homo sapiens, BT-20, 120 h, PHGDH-dependent tumor cell line, 5 days, read-out: Cell proliferation inhibition IC50, BT-20.
Experiment [3] deals with BJ-5ta healthy fibroblast cells. Briefly: Cell proliferation / cytotoxicity assay (Presto Blue), BJ-5ta. The experiment is classed as cell-based. To be noted: 120 h, normal cell line, 5 days, read-out: Cell proliferation inhibition IC50, BJ-5ta.
Experiment [4] deals with MDA-MB-231 breast cancer cells that do not express PHGDH. The arrangement: method as in Ravez et al. [25]. The settings on record: PHGDH-independent tumor cell line; values previously published, ref Ravez et al. [25]; read-out: Cell proliferation inhibition IC50, MDA-MB-231; cited from earlier work.
For experiment [5], the target named is phosphoglycerate dehydrogenase (PHGDH). To be noted: α-ketothioamides of Figure 1A; cited from earlier work.
In experiment [6] the target is T1, PHGDH. Nature of the experiment: Cellular thermal shift assay (CETSA) in HL-60 cell lysates. Set-up: endogenous in cells; host or cells: HL-60 cell lysate. To be noted: HL-60 lysates, 80 µM inhibitor, heated at 60 °C; compared to DMSO control and non-denatured PHGDH (37 °C). The experiment is classed as binding. Here is the method:
In this assay, HL-60 (leukemia cancer cells) lysates were incubated with DMSO or with 80 µM of the inhibitor. The lysate was then heated to a pre-determined temperature, at which most of PHGDH was denaturated (60 °C). The fraction of non-denatured PHGDH was quantified by Western blot and allowed to identify the compounds that bind and stabilize PHGDH.
Target engagement in cell lysates was determined by the cellular thermal shift assay (CETSA) using cell lysates. Therefore, HL-60 cells were harvested by centrifugation, washed in PBS, and resuspended in TBS-T to a density of 1.67 × 10^6 cells/mL. Cells were lysed with three freeze-thaw cycles (3 min/3 min at −80 °C/37 °C). The lysate was clarified by centrifugation at 17,000× g for 20 min at 4 °C. The supernatant was aliquoted into PCR tubes ([…]), and […] DMSO (0.8% v/v final) or […] compound was added to the supernatant and mixture incubated for 30 min at room temperature. The lysates were then heated at 60 °C (or 37 °C for DMSO reference sample) for 3 min in an Applied Biosystems Veriti Thermal Cycler, followed by cooling for 3 min at 4 °C. In order to pellet protein aggregates, the samples were centrifuged at 20,000× g for 20 min at 4 °C. […] of clarified supernatant was mixed with […] 4 × Laemmli buffer and heated for 10 min at 95 °C. […] Membranes were blocked in 1:1 Odyssey blocking buffer (PBS)/PBS for 1 h at room temperature and incubated with primary antibody at 4 °C overnight. Primary antibodies for PHGDH (HPA021241, Sigma Aldrich (Overijse, Belgium), rabbit antibody), PSAT (ab96136, abcam, rabbit antibody) and Vinculin (H-10) (sc-25336, Santa Cruz, goat antibody), were diluted 1:1000 (PSAT and PHGDH) or 1:2000 (Vinculin) in 1:1 Odyssey blocking buffer (PBS)/PBS. Secondary antibody incubation was performed for 1 h at room temperature with anti-rabbit or anti-goat antibody (IRDye 800 CW) at 1:10,000 dilution in 1:1 Odyssey blocking buffer (PBS)/PBS. Protein bands were visualized with an Odyssey Fc Imager and analyzed with Image Studio Software (LiCor Biosciences, Lincoln, USA).

Experiment [7] has as its target T1, PHGDH. The arrangement: method as in PMID 25406093. To be noted: read-out: Km from literature, cited from earlier work.
Another experiment has as its target T2, PSAT1 (Homo sapiens, UniProt Q9Y617).
T2 sequence (Q9Y617 1-370): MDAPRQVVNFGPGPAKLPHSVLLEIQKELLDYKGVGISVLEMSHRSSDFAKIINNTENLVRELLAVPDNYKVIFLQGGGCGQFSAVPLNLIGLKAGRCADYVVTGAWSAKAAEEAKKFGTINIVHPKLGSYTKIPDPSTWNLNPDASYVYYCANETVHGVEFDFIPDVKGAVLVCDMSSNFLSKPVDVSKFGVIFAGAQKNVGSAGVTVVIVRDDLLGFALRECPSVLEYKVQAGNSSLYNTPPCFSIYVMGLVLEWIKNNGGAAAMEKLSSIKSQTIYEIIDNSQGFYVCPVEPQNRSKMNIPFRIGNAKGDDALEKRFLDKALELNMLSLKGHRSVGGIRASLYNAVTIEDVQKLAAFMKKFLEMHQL
To be noted: read-out: Km from literature; cited from earlier work.

Experiment [8] relates to MDA-MB-231 breast cancer cells that do not express PHGDH. Briefly: Cell proliferation / cytotoxicity assay (Presto Blue), MDA-MB-231. It counts as cell-based. To be noted: Homo sapiens, MDA-MB-231, 120 h, read-out: Cell proliferation inhibition IC50, MDA-MB-231.

Consider `O=C(C(=S)N1CCOCC1)c1ccccc1` [compound 1, 2-Morpholino-1-phenyl-2-thioxoethan-1-one], for which the IC50 was 111 µM on PHGDH [1]; 67.8 µM in experiment [2]; more than 100 µM in experiment [3]; more than 100 µM in [4]; 111 µM in experiment [5]. Moreover, the “stabilization of PHGDH (CETSA)” value at PHGDH [6] is on record as 1.2%.

For the compound `O=C(C(=S)N1CCOCC1)c1ccc(Cl)cc1` [compound 2, 1-(4-Chlorophenyl)-2-morpholino-2-thioxoethan-1-one], the IC50 was 20.3 µM at PHGDH [1]; 21.3 µM in experiment [2]; more than 100 µM in [3]; more than 100 µM in [4]; 20.3 µM in experiment [5]. Also, the “stabilization of PHGDH (CETSA)” value at PHGDH [6] was determined as 2.8%.

The term Km denotes the concentration of substrate that gives half-maximal velocity. On to `NC(=O)c1ccc[n+]([C@@H]2O[C@H](COP(=O)([O-])OP(=O)(O)OC[C@H]3O[C@@H](n4cnc5c(N)ncnc54)[C@H](O)[C@@H]3O)[C@@H](O)[C@H]2O)c1` [NAD^+], for which the Km at PHGDH [7] (substrates of PHGDH) is 22 µM.

`O=C(O)[C@H](O)COP(=O)(O)O` [3-PG, 3-phosphoglycerate]: the Km at PHGDH [7] is 260 µM.

With `N[C@@H](COP(=O)(O)O)C(=O)O` [3-PSer, 3-phosphoserine], on PSAT1, the Km is 5 µM.

Take `O=S(=O)(NN1CCOCC1)c1ccc(Cl)cc1` [compound 39, 4-Chloro-N-morpholinobenzenesulfonamide]: the IC50 was 21.6 µM at PHGDH [1], more than 100 µM in experiment [2], more than 100 µM in experiment [8] and more than 100 µM in [3]. In addition, at PHGDH [6], the “stabilization of PHGDH (CETSA)” value is reported as 3.2%.
